The melting point is the temperature of the solid-liquid transition.

With `CC(C)[C@H](NC(=O)OC(C)(C)C)C(=O)OC[C@H]1O[C@@H](n2cc(/C=C/Br)c(=O)[nH]c2=O)C[C@@H]1Cl` [1.2.2.5, 5′-O—(N-t-butyloxycarbonyl-L-valinoyl)-3′-chloro-2′,3′-dideoxy-5-(E)-bromovinyluridine], the melting point was in the range of 75 to 76 °C. For `CC(C)[C@H](NC(=O)OC(C)(C)C)C(=O)N[C@H](C(=O)OC[C@H]1O[C@@H](n2cc(/C=C/Br)c(=O)[nH]c2=O)C[C@@H]1Cl)C(C)C` [1.2.2.7, 5′-O—(N-t-butyloxycarbonyl-L-valyl-L-valinoyl)-3′-chloro-2′,3′-dideoxy-5-(E)-bromovinyluridine] the value was 102 to 103 °C.

On to `CC(C)[C@H](NC(=O)OC(C)(C)C)C(=O)N[C@H](C(=O)OC[C@H]1O[C@@H](n2cc(/C=C/Br)c(=O)[nH]c2=O)C[C@@H]1N=[N+]=[N-])C(C)C` [1.2.2.9, 3′-azido-5′-O—(N-t-butyloxycarbonyl-L-valyl-L-valinoyl)-2′,3′-dideoxy-5-(E)-bromovinyluridine], for which the melting point was in the range of 95 to 97 °C. Take `CC(=O)N[C@H]1C[C@H](n2cc(/C=C/Br)c(=O)[nH]c2=O)O[C@@H]1CBr` [1.4.2, 3′-acetamido-5′-bromo-2′,3′,5′-trideoxy-5-(E)-bromovinyluridine]: the melting point was in the range of 178 to 180 °C. Compound `O=c1[nH]c(=O)n([C@H]2C[C@H](O)[C@@H](CF)O2)cc1/C=C/Br` [2.1.1, 2′,5′-dideoxy-5′-fluoro-5-(E)-bromovinyluridine] registered a melting point of 208 °C. Turning to `CO[C@H]1C[C@H](n2cc(/C=C/Br)c(=O)[nH]c2=O)O[C@@H]1CCl` [2.1.2, 3′-O-methyl-5′-chloro-2′,5′-dideoxy-5-(E)-bromovinyluridine], the melting point stood at 145 °C. As to `CO[C@H]1C[C@H](n2cc(/C=C/Br)c(=O)n(C)c2=O)O[C@@H]1CF` [2.1.3, 3′-O-methyl-5′-fluoro-2′,5′-dideoxy-3-methyl-5-(E)-bromovinyluridine], the melting point was 95 °C.

The compound `CO[C@H]1C[C@H](n2cc(/C=C/Br)c(=O)[nH]c2=O)O[C@@H]1CF` [2.1.4, 3′-O-methyl-5′-fluoro-2′,5′-dideoxy-5-(E)-bromovinyluridine] had a melting point of 177 °C. As for `CC(=O)O[C@H]1C[C@H](n2cc(/C=C/Br)c(=O)[nH]c2=O)O[C@@H]1C(O)F` (stereo partly shown) [2.2.1, 3′-O-acetyl-5′-fluoro-2′-deoxy-5-(E)-bromovinyluridine], the melting point turned out to be 81 °C. In turn, `CCCCOC(=O)N[C@H](C(=O)O[C@H]1C[C@H](n2cc(/C=C/Br)c(=O)[nH]c2=O)O[C@@H]1CCl)C(C)C` [2.2.2.5, 3′-O—(N-4-butyloxycarbonyl-L-valinoyl)-5′-chloro-2′,5′-dideoxy-5-(E)-bromovinyluridine] showed a melting point of 87 to 88 °C. `CC(C)[C@H](NC(=O)OC(C)(C)C)C(=O)N[C@H](C(=O)O[C@H]1C[C@H](n2cc(/C=C/Br)c(=O)[nH]c2=O)O[C@@H]1CCl)C(C)C` [2.2.2.7, 3′-O—(N-t-butyloxycarbonyl-L-valyl-L-valinoyl)-5′-chloro-2′,5′-dideoxy-5-(E)-bromovinyluridine]: the melting point is 114 to 116 °C. Consider `CC(C)[C@H](NC(=O)OC(C)(C)C)C(=O)N[C@H](C(=O)O[C@H]1C[C@H](n2cc(/C=C/Br)c(=O)[nH]c2=O)O[C@@H]1CN=[N+]=[N-])C(C)C` [2.2.2.9, 5′-azido-3′-O—(N-t-butyloxycarbonyl-L-valyl-L-valinoyl)-2′,5′-dideoxy-5-(E)-bromovinyluridine], for which the melting point fell in the range of 133 to 135 °C. For `O=c1[nH]c(=O)n([C@@H]2O[C@H](CBr)[C@@H](O)[C@H]2O)cc1/C=C/Br` [2.3, 5′-bromo-5′-deoxy-5-(E)-bromovinyluridine], the melting point was found to be 201 °C. `O=c1[nH]c(=O)n([C@H]2C[C@H](F)[C@@H](CF)O2)cc1/C=C/Br` [3.1, 3′,5′-difluoro-2′,3′,5′-trideoxy-5-(E)-bromovinyluridine] showed a melting point of 177 to 180 °C. Consider `O=c1[nH]c(=O)n([C@H]2C[C@H](F)[C@@H](CCl)O2)cc1/C=C/Br` [3.2, 3′-fluoro-5′-chloro-2′,3′,5′-trideoxy-5-(E)-bromovinyluridine], for which the melting point came out at 203 °C. The value for `O=c1[nH]c(=O)n([C@H]2C[C@H](Cl)[C@@H](CCl)O2)cc1/C=C/Br` [3.3, 3′,5′-dichloro-2′,3′,5′-trideoxy-5-(E)-bromovinyluridine] was 184 °C; that for `O=c1[nH]c(=O)n([C@H]2C[C@H](Cl)[C@@H](CBr)O2)cc1/C=C/Br` [3.5, 3′-chloro-5′-bromo-2′,3′,5′-trideoxy-5-(E)-bromovinyluridine] was 149 °C.

`[N-]=[N+]=NC[C@H]1O[C@@H](n2cc(/C=C/Br)c(=O)[nH]c2=O)C[C@@H]1Cl` [3.5.3, 5′-azido-3′-chloro-2′,3′,5′-trideoxy-5-(E)-bromovinyluridine] had a melting point of 58 to 60 °C. The value for `[N-]=[N+]=N[C@H]1C[C@H](n2cc(/C=C/Br)c(=O)[nH]c2=O)O[C@@H]1CCl` [3.5.4, 3′-azido-5′-chloro-2′,3′,5′-trideoxy-5-(E)-bromovinyluridine] was 124 to 125 °C; that for `O=c1[nH]c(=O)n([C@H]2C[C@H](Br)[C@@H](CBr)O2)cc1/C=C/Br` [3.6, 3′,5′-dibromo-2′,3′,5′-trideoxy-5-(E)-bromovinyluridine] was 153 °C; that for `O=c1[nH]c(=O)n([C@H]2C=C[C@@H](CO)O2)cc1/C=C/Br` [4.1, 2′,3′-didehydro-2′,3′-dideoxy-5-(E)-bromovinyluridine] was > 250 °C (dec.).

In turn, `O=c1[nH]c(=O)n([C@H]2C=C[C@@H](CBr)O2)cc1/C=C/Br` [4.2, 2′,3′-didehydro-2′,3′,5′-trideoxy-5′-bromo-5-(E)-bromovinyluridine] displayed a melting point greater than 150 °C. With `O=c1[nH]c(=O)n([C@@H]2O[C@H](CO)[C@@H](O)[C@H]2F)cc1/C=C/Br` [5.1, 2′-fluoro-2′-deoxy-5-(E)-bromovinyluridine], the melting point worked out at 182 °C. For the compound `O=c1[nH]c(=O)n([C@@H]2O[C@H](CBr)[C@@H](O)[C@H]2F)cc1/C=C/Br` [5.2, 2′-fluoro-5′-bromo-2′,5′-dideoxy-5-(E)-bromovinyluridine], the melting point was 223 °C. For `C[C@H]1O[C@@H](n2cc(/C=C/Br)c(=O)[nH]c2=O)C[C@@H]1O` [8.1, 2′,5′-dideoxy-5-(E)-bromovinyluridine] the value was 174 °C (dec.); for `C[C@H]1O[C@@H](n2cc(/C=C/Br)c(=O)[nH]c2=O)C[C@@H]1Cl` [8.2, 3′-chloro-2′,3′,5′-trideoxy-5-(E)-bromovinyluridine], 134 °C. `CC(=O)O[C@H]1C[C@H](n2cc(/C=C/Br)c(=O)[nH]c2=O)O[C@@H]1CC#N` [10.3, 3′-O-acetyl-5′-cyano-2′,5′-dideoxy-5-(E)-bromovinyluridine] returned a melting point of 96 °C. With `N#CC[C@H]1O[C@@H](n2cc(/C=C/Br)c(=O)[nH]c2=O)C[C@@H]1O` [compound 10, 5′-cyano-2′,5′-dideoxy-5-(E)-bromovinyluridine], the melting point is 177 °C (dec.).

Values taken from US8492537B2, “Nucleosides for suppressing or reducing the development of resistance in cytostatic therapy” (RESprotect GmbH, priority 2006, dated 2013).
